Assay results taken from patent US20250114335A1, “METHODS AND COMPOSITIONS FOR THE TREATMENT OF EPILEPSY” (ARIZONA BOARD OF REGENTS ON BEHALF OF THE UNIVERSITY OF …, priority 2022, published 2025).
Values joined by “and” are separate entries in the source; they are usually repeats but may differ in a detail not shown here. Identical values can stand only once.

Assays:
[1] = system: B6-D/+ (Scn8a-N1768D) adult mice; details: CBD-treated B6-D/+ males, comparison; cited from earlier work
[2] = system: B6-D/D (Scn8a-N1768D) juvenile mice; details: CBD-treated B6-D/D males, comparison; cited from earlier work
[3] = system: B6-D/D (Scn8a-N1768D) juvenile mice; experiment: Survival and seizure frequency, B6-D/D juvenile mice; type: in vivo, mouse; details: for Age at Death: daily s.c. injection
From the text: (§1) Mouse strains: The C57BL/6J-N1768D congenic mouse (B6-D/+) was used for phenotyping, RNAseq, and BBB studies. In addition, a hybrid strain that was produced by backcross breeding to transfer the Scn8a-N1768D allele from the B6 to the C3H/HeJ strain background was used to further assess the effect of CND on survival and seizure frequency. After constructing an F1 by crossing male B6-D/+ heterozygotes to female C3H/HeJ, five rounds of backcrossing (N6) produced a […] and 98.5% C3H/HeJ-N1768D line (C3H-D/+). Sister-brother mating maintained the 98.5% C3H background. […] C3H-D/D mice have a delayed seizure onset (˜40-45 days) and an extended survival (65-70 days) with intermittent bouts of TCs (FIG. 1A).
(§2) Phenotyping: Female and male mice on both the B6 and C3H backgrounds were housed in sex-specific groups of 3-4 per cage in a pathogen-free mouse facility with a 14 h light/10 h dark cycle (lights turned on at 5 am). A 24/7 video monitoring system was utilized to collect seizure data, with infrared illumination to monitor behavior during the dark period. Seizures were counted as individual TCs. Adult mice were followed from the age of 6 weeks, a period of time well before seizure onset, in order to identify the day of seizure onset. A seizure bout was defined as a cluster of seizures on consecutive days, and a gap as a seizure-free period of 3 days or more.
(§3) Preparation of CND suspension for injections and oral dosing: Juvenile B6-D/D and adult B6-D/+ mice were given subcutaneous (s.c.) injections with either CND (2-4 mg/kg/day; doses that fall within the FDA-approved range for CND in both adults and children) or vehicle (VEH) (Sigma-Aldrich) (FIG. 1B). Oral dosing of adults was performed by thoroughly mixing 160 μl of suspension containing 1.28 mg of CND or VEH with 5 g of pure (organic) peanut butter in a petri dish. Mice were given 1 g pellet per mouse each day. Pellets were weighed each day to record the amount consumed, and 24/7 video was used to verify that each mouse was consuming the pellet. An average of 0.79 g (±0.36 g) was consumed by an adult mouse (˜20-25 g), corresponding to 9.1±4.2 mg/kg/day. No correlations were found for the amount of CND consumed and lifetime survival or number of TCs.
(§4) Survival and seizure frequency studies: B6-D/D mice were injected with CND (n=10) or VEH (n=10) at 15 days of age (P15) and followed to monitor TCs by 24/7 video recording until death (FIG. 1B). A separate set of 10 B6-D/D mice was administered a daily s.c. injection of 25 mg/kg/day phenytoin (PHT) suspension or VEH (US Pharmacopeia, Sigma-Aldrich). Oral administration of CND or VEH was initiated at the time of seizure onset (range P75-P85) for adult B6-D/+ females (N=10) and males (N=10) (FIG. 1B). Mice were monitored for seizures by 24/7 video recording until the time of death.

[4] = system: hippocampal gene expression; experiment: RNAseq and pathway analysis of hippocampal tissue, B6-D/D juveniles; type: in vivo, mouse
Description: (§5) Transcriptome studies: B6-D/D and wild-type (+/+) (n=3) were administered CND or VEH by s.c. injection for a period of 5 days starting at P15 and sacrificed for removal of hippocampal tissue (n=12) (FIG. 1B). Adult B6-D/+ male (n=3) mice were administered CND or VEH pellets as described above at the time of seizure onset and monitored for seizures for an extended period before sacrifice and removal of hippocampal tissue (100-160 d) (i.e., to match the age at which a VEH-treated male B6-D/+ experience ˜20 TCs) (FIG. 1B).
(§6) RNA sequencing: Hippocampal tissues from 21 mice were obtained according to a sampling strategy that compared (1) untreated (VEH only) and treated B6-D/D (n=3) with age-matched B6-+/+ controls (n=3 per group), (2) untreated (VEH only) male B6-D/+ mice that had experienced ˜20 TCs (n=3 per group) with age-matched B6-+/+ controls (n=3 per group), and (3) male B6-D/+ mice that were treated with CND for an extended period (n=3 per group). Brains of treated and untreated mice were dissected to yield tissue samples from the hippocampus. Bulk tissue was stored in RNALater (Qiagen, Valencia, CA) at −80 degrees centigrade. The technique for analyzing hippocampal gene expression was performed. Briefly, RNA was isolated from hippocampal tissue, and initial QC was performed. Libraries were constructed using a stranded mRNA-Seq Kit, and average fragment size was assessed. After concentrations were determined with an adaptor-specific qPCR kit, equimolar samples were pooled and clustered for sequencing on a Novaseq instrument (Illumina). Sample data were demultiplexed, trimmed, and quality filtered, and Fastq files were splice-aligned against the […] reference genome using STAR aligner version 2.5.2b. Gene expression counts were obtained using htseq-count version 0.6.1. Both splice alignment and counting were performed with Ensembl Annotation of the NCBI reference genome, and raw counts were analyzed with edgeR version 3.16.5.
(§7) Data and pathway analysis: Results of statistical summaries were generally expressed as mean±SD. Kaplan-Meier survival curves were used to test for differences in survival. […] A ‘perturbation signature’ approach was used to identify genome-wide differences in transcript abundance between transgenic mice (i.e., D/+, D/D, or +/+) that were untreated (VEH) or treated with CND. Differential expression analysis was performed. Briefly, the exactTest function was utilized in edgeR, and gene expression counts were first normalized using the calcNormFactors function. DEG analysis was performed on treatment versus control groups at two different ages using three biological replicates per group, which has been shown in power analyses to be sufficient to yield a true positive rate greater than 80% under the conditions used here. Multidimensional scaling (MDS) plots were constructed using the ‘plotMDS’ function in edgeR, which plots samples on a 2D scatterplot so that distances on the plot approximate the typical log 2 fold changes between samples. […] Rather than focusing on any single gene, bioinformatic analyses of our RNAseq data identified the most statistically significant biological pathways that were enriched given the set of DEGs in each experiment.

[5] = system: hippocampal gene expression; experiment: RNAseq and pathway analysis of hippocampal tissue, B6-D/+ adult males; type: in vivo, mouse
Description: as §5, §6, §7

[6] = system: C3H-D/D (Scn8a-N1768D) adult mice; experiment: Survival and seizure frequency, adult C3H-D/D mice followed until death; type: in vivo, mouse; details: for #Days survived postTC / #TCs / #TCs/day (PostTC) / #gaps (av) / Age at Death / Age at Onset / gap days / mean gap length: Treated; for observed standard effect size, Kaplan-Meier survival: treated versus untreated
From the text: as §1, §2, §3
Data for the untreated mice were previously reported. Table 1 also provides C3H-D/D summary statistics for female untreated (N=15) and treated (N=15) and male untreated (N=27) and treated (N=16) monitored until the time of death.

[7] = system: B6-D/+ (Scn8a-N1768D) adult mice; experiment: Survival and seizure frequency, adult B6-D/+ mice followed for the entire lifespan; type: in vivo, mouse; design: reduction in post-onset seizure frequency: concentration or dose not given beside the values; details: for observed standard effect size, Kaplan-Meier survival: treated versus untreated
From the text: as §1, §2, §3
as §4, with “Oral administration of CND or VEH was initiated at the time of seizure onset (range P75-P85) for adult B6-D/+ females (N=10) and males (N=10) (FIG. 1B).” left out

[8] = B6-D/D juveniles, Treated, listed as CDN
[9] = CND-treated B6-D/D, FDR-adjusted P-value <0.05
[10] = treated juveniles, FDR cutoff 0.25

## C=C(C)[C@@H]1CCC(C)=C[C@H]1c1c(O)cc(CCCCC)cc1O [CBD]
[1]
  standard effect size, survival: 0.50
[2]
  standard effect size, survival: 0.35

## CCOc1nc2cccc(C(=O)O)c2n1Cc1ccc(-c2ccccc2-c2nnn[nH]2)cc1 [CND, candesartan]
[3]; B6-D/D
  days surviving longer than untreated: 6.3 days
[3]; B6-D/D Juveniles
  reduction in seizure frequency: 45.8%
[3]; B6-D/D juveniles, Treated
  #TCs: 119.0 TCs
  #TCs/day (Life): 0.09 TCs/day
  #TCs/day (PostTC): 15.4±10.3 TCs/day
  #gaps: 0.9
  Age at Onset: 21.4
  Days with TCs: 7.2 days
  gap days: 4.3 days
  mean gap length: 3.4
  Age at Death: 31.8 ± 2.7 days
[3]; [8]
  Age at Death: 31.8 days
  #TCs/day (PostTC): 15.4 TCs/day
[3]; B6-D/D juveniles, treated versus VEH
  increase in survival of juveniles: 27%
[3]; B6-D/D juveniles, treated versus untreated (VEH only)
  observed standard effect size, Kaplan-Meier survival: 0.79
[4]; B6-D/D Juveniles
  TREATED z-score, upstream regulator ACKR2: −2.00
  TREATED z-score, upstream regulator IL1B: 1.76
  TREATED z-score, upstream regulator PTGER4: −2.43
  TREATED z-score, upstream regulator SIRT1: −2.83
  TREATED z-score, upstream regulator TGFB1: 0.42
  TREATED z-score, upstream regulator TNF: 1.32
  TREATED z-score, upstream regulator lipopolysaccharide: 3.19
[4]; [9]
  number of down-regulated DEGs: 25
  number of up-regulated DEGs: 50
[4]; [10]
  z-score, EIF2 Signaling pathway: 3.2
  z-score, Granzyme A Signaling pathway: −3.4
  z-score, Mitochondrial Dysfunction pathway: −3.8
  z-score, Oxidative Phosphorylation pathway: 5.0
[4]; treated juveniles, FDR≤0.25, 95% CI=3.5-979
  odds ratio, enhancement of ETC gene activation in treated versus untreated: 23 fold
[5]; B6-D/+ Adult males
  TREATED z-score, upstream regulator ERBB2: −2.00
  TREATED z-score, upstream regulator NUPR1: −2.00
  TREATED z-score, upstream regulator PTGS2: -2.8
[5]; CND-treated B6-D/+ adult males
  number of canonical pathways predicted to be activated: 11
  number of canonical pathways predicted to be deactivated: 3
  number of enriched canonical pathways: 14
[5]; CND-treated B6-D/+ males
  number of DEGs: 86
  number of down-regulated DEGs: 10
  number of up-regulated DEGs: 76
[6]; C3H Females (D/D)
  #Days survived postTC: 68.9 days
  #TCs: 30.1 TCs
  #TCs/day (PostTC): 0.51 TCs/day
  #gaps (av): 7.5
  Age at Death: 117.4 ± 28.0 days and 117.4 days
  Age at Onset: 48.5 days
  gap days: 44.0 days
  mean gap length: 5.8 days
[6]; C3H Males (D/D)
  #Days survived postTC: 68.9 days
  #TCs: 37.4 TCs
  #TCs/day (PostTC): 0.57 TCs/day
  #gaps (av): 9.8
  Age at Death: 117.1 ± 20.4 days and 117.1 days
  Age at Onset: 48.1 ± 5.1 days and 48.1 days
  gap days: 44.4 days
  mean gap length: 4.7 days
[6]; C3H-D/D females
  increase in survival, treated versus untreated: 47.5%
  reduction in post-onset seizure frequency: 78.4%
  observed standard effect size, Kaplan-Meier survival: 0.83
[6]; C3H-D/D males
  increase in survival, treated versus untreated: 49.2%
  reduction in post-onset seizure frequency: 48.0%
  observed standard effect size, Kaplan-Meier survival: 0.79
[7]; B6-D/+ females
  increase in survival, treated versus untreated: 34.7%
  reduction in post-onset seizure frequency: 88.9%
  observed standard effect size, Kaplan-Meier survival: 0.59
[7]; B6-D/+ males
  increase in survival, treated versus untreated: 48.9%
  mean days surviving longer than untreated: 44.5 days
  reduction in post-onset seizure frequency: 56.5% and 59.1%
  observed standard effect size, Kaplan-Meier survival: 0.69
[7]; B6 Females (D/+), Treated
  #Days survived postTC: 76.4 days
  #TCs: 14.3 TCs
  #TCs/day (PostTC): 0.24 TCs/day
  Age at Onset: 91.2 days
  gap days: 34.0 days
  mean gap length: 8.3 days
[7]; B6 Females (D/+), Treated, oral from seizure onset
  Age at Death: 167.6 ± 19.1 days and 167.6 days
[7]; B6 Females (D/+), Treated, gap = seizure-free period of 3 days or more
  #gaps (av): 4.0
[7]; B6 Males (D/+), Treated Early
  #Days survived postTC: 16.8 days
  #TCs: 18.9 TCs
  #TCs/day (PostTC): 2.4 TCs/day
  #gaps (av): 2.6
  Age at Death: 121.6 days
  Age at Onset: 99.2 days
  gap days: 15.0 days
  mean gap length: 6.7 days
[7]; B6 Males (D/+), Treated Late
  #Days survived postTC: 52.7 days
  #TCs: 43.6 TCs
  #TCs/day (PostTC): 1.0 TCs/day
  #gaps (av): 4.0
  Age at Onset: 81.3 days
  gap days: 37.8 days
  mean gap length: 12.4 days
[7]; B6 Males (D/+), Treated Late (oral from seizure onset)
  Age at Death: 135.8 ± 28.4 days and 135.8 days
